The assay relates to T1, TpdE.
T1 construct: C-terminal His6 tag, pET-tpdE in E. coli BL21 (DE3), Ni-chelating column, ~30 kDa on SDS-PAGE; residues T15, G16, G20, G22, N119, S148, Y161, K165
The experiment in a line: NADPH oxidation at […] nm, Michaelis-Menten fit. The format is biochemical, Rhodococcus jostii. The settings on record: 0.2 mM NADPH, 50 mM phosphate pH 7.2, 30 °C; apparent.

In general, Km refers to the substrate concentration at which the rate is half of its maximum. With `CC(=O)C(C)O` (stereo not drawn) [Acetoin], the Km stood at 5 ± 0.3 mM. On to `CC(=O)C(C)=O` [Diacetyl], for which the Michaelis constant (Km) is 1.9 ± 0.3 mM.

In the case of `CCC(=O)C(=O)CC` [3,4-Hexanedione], the Km turned out to be 3.3 ± 0.6 mM. As for `CC(=O)C(C)(C)O` [3-Hydroxy-3-methyl-2-butanone], the figure is 14.6 ± 4 mM. The same measure for `CCC(=O)C(C)=O` [2,3-Pentanedione]: 0.98 ± 0.2 mM; for `CCCCC(=O)C(C)=O` [2,3-Heptanedione]: 6.9 ± 0.9 mM.

On to `CCCC(=O)C(C)=O` [2,3-Hexanedione], for which the Km was found to be 2.2 ± 0.4 mM. With `CCCC(=O)OC(C)C(C)=O` (stereo not drawn) [Butan-3-one-2-yl-butanoate], the Km was 0.76 ± 0.1 mM. The same measure for `CC(=O)C(C)S` (stereo not drawn) [3-Mercapto-2-butanone]: 14.4 ± 4.8 mM.
